What all share (test): growth of human tumour cells (NCI), 48 h
Experiment [1] concerns UACC-257 melanoma.
Experiment [2] has as its system SNB-75 CNS.
For experiment [3], the system named is LOX IMVI melanoma.
The test system of experiment [4] is A498 renal.
The subject of experiment [5] is SK-MEL-28 melanoma.
Experiment [6] deals with SF-295 CNS.
Experiment [7] deals with U251 CNS.
Experiment [8] relates to MCF7 breast.
For experiment [9], the system named is PC-3 prostate.
For experiment [10], the system named is HL-60(TB) leukemia.

SMILES strings stand for the structures.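 Step 1: Grow cells in 96-well plates. Step 2: Expose to compound for 48 hours at 5 concentrations. Step 3: Interpolate endpoints linearly; if unreached, use highest concentration. At the GI50, growth is halved. TGI marks complete inhibition of growth.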 Where a SMILES comes first, the peptide text is derived from it. [ ]: non-standard residue; d: D form. The star is where a group is joined. ξ: configuration not given here. ξD = NC(CC(=O)O)C(=O)O; Ac3c = NC1(C(=O)O)CC1; Boc = CC(C)(C)OC(=O)*; OtBu = CC(C)(C)O* Where only a bound is given, the exact number is not on record here.

For `COc1cc(OC)cc(-c2n/c(=C\c3c(O)[nH]c4ccc(Cl)cc34)cc3c2=Nc2ccccc2-3)c1`, the GI50 in [1] is greater than 100 µM; in experiment [2] it was 16.3 µM; in experiment [3], 1.92 µM; in experiment [4], 30.9 µM; in experiment [5], 29.3 µM; in experiment [6], 2.32 µM. Moreover, the GI50 was 1.75 µM in experiment [7], 1.82 µM in experiment [8] and 5.55 µM in [9]. Further, the TGI in [1] was greater than 100 µM; in experiment [2] it was 39.6 µM; in experiment [3], 4.34 µM; in experiment [4], greater than 100 µM; in experiment [5], greater than 100 µM; in experiment [6] it was 6.11 µM. Also, the TGI was found to be 3.22 µM in [7], 4.66 µM in experiment [8] and 28.7 µM in experiment [9].
Turning to `OC(CCN1CCN(CCOC(c2ccccc2)c2ccccc2)CC1)c1ccc(Br)cc1` (stereo unspecified), the TGI came out at 12.6 µM in experiment [1]; 27.5 µM in experiment [2]; 23.5 µM in experiment [3]; 22 µM in experiment [4]; 22.8 µM in experiment [5]; 29.8 µM in experiment [6]. The TGI in experiment [7] came to 25.1 µM; in [8] it was 31.8 µM; in experiment [9], 23 µM; in experiment [10], 28.8 µM.
Regarding `O=C(N/N=C/c1ccc(Cl)cc1)c1cc(I)cc(I)c1O`, the TGI in experiment [1], in experiment [2], in [3], in experiment [4], in experiment [5] and in experiment [6] was greater than 100 µM in each case. The TGI in [7], in [8], in experiment [9] and in experiment [10] was greater than 100 µM each time.
`CN(CCc1ccc(Cl)c(Cl)c1)CCN(C)CCN1CCCC1`: the TGI in experiment [1] worked out at 5.04 µM; in [2] it was 31.5 µM; in experiment [3] it was 20.1 µM; in experiment [4] it was 26.3 µM; in experiment [5] it was 3.34 µM; in [6], 32.4 µM. In addition, the TGI in experiment [7] is 24.4 µM; in [8] it was 26.3 µM; in [9], 39.7 µM; in [10], 31.7 µM.
`COc1cc(/C=C2\Cc3cc(OC)c(OC)cc3C2=O)cc(OC)c1`: the TGI is greater than 100 µM in experiment [1]; greater than 100 µM in experiment [2]; greater than 100 µM in experiment [3]; greater than 100 µM in experiment [4]; greater than 100 µM in [5]; 41.7 µM in experiment [6]. The TGI in experiment [7], in experiment [8], in experiment [9] and in [10] was greater than 100 µM in each case.
Consider `CCOP(=O)(OCC)C1(O)CC(n2cc(C)c(=O)[nH]c2=O)OC1CO` (stereo unspecified), for which the TGI in experiment [1], in experiment [2], in [3], in experiment [4], in experiment [5] and in [6] was greater than 100 µM each time. In addition, the TGI in [7], in experiment [8], in [9] and in [10] was greater than 100 µM each time.
As to `CC(C)(C)c1cc(C(=O)/C=C/c2ccn[nH]2)cc(C(C)(C)C)c1O`, the TGI in experiment [1] worked out at 11.2 µM; in [2], 9.61 µM; in experiment [3], 3.48 µM; in [4] it was 6.25 µM; in [5], 11.7 µM; in [6] it was 28.1 µM. The TGI in experiment [7] amounted to 3.11 µM; in [8], 4.78 µM; in [9], 5.18 µM; in experiment [10] it was 5.64 µM.
Turning to `O=C1NC2CCCCC2N=C1/C(C(=O)c1ccccc1)=C(\O)c1ccccc1` (stereo unspecified), the TGI in experiment [1], in experiment [3], in experiment [4], in experiment [5], in experiment [6] and in [7] was greater than 100 µM in each case. Besides, the TGI in experiment [8], in [9] and in [10] was greater than 100 µM each time.
For the compound `Cc1ccc(S(=O)(=O)c2ccc([N+](=O)[O-])o2)cc1`, the TGI in experiment [1] stood at 3.61 µM; in [2], 11.8 µM; in experiment [3] it was 2.91 µM; in experiment [4], 33.9 µM; in experiment [5], 3.81 µM; in [6], 43.9 µM. Besides, the results for the TGI in experiment [7], in experiment [8] and in [9] were 17.7 µM, 7.13 µM and 3.28 µM, respectively.
With `COc1ccc2c(-c3ccc(OCCN(C)C)cc3)c(Oc3ccc(Cl)cc3)c(=O)oc2c1`, the TGI worked out at 3.75 µM in experiment [1]; 27.6 µM in [2]; 4.3 µM in [3]; 29.4 µM in experiment [4]; 3.57 µM in experiment [5]; 5.42 µM in [6]. Besides, the TGI in experiment [7] was found to be 14.5 µM; in [8] it was 6.12 µM; in experiment [9] it was 19.7 µM.
On to `CSCCCNC(=O)c1csc(-c2csc(CCNC(=O)CNC(=O)CNC(=O)CNC(=O)OC(C)(C)C)n2)n1`, for which the TGI in [1], in [2], in [3], in experiment [4], in [5] and in experiment [6] was greater than 100 µM in each case. The TGI in experiment [7], in experiment [8] and in [9] was greater than 100 µM in each case.
As for `CC(=O)c1ccc(N2CCN(C3=CC(=O)c4c(O)ccc(O)c4C3=O)CC2)cc1`, the TGI in experiment [1] was greater than 100 µM; in experiment [2], 61.7 µM; in experiment [4], greater than 100 µM; in experiment [5] it was greater than 100 µM; in [6] it was greater than 100 µM; in experiment [7] it was 50.3 µM. The values for the TGI in experiment [8], in experiment [9] and in experiment [10] were greater than 100 µM, greater than 100 µM and 38.6 µM, respectively.
In the case of `COc1ccc2c(c1OC)C(=O)O[C@@H]2[C@H]1c2cc3c(cc2CCN1C)OCO3`, the TGI in [1], in experiment [2], in experiment [3], in experiment [4], in experiment [6] and in experiment [7] was greater than 100 µM each time. Moreover, the TGI in experiment [8], in experiment [9] and in experiment [10] was greater than 100 µM throughout.
For `CC(=O)O[C@H]1CN(S(=O)(=O)c2ccc(C)cc2)C[C@@H]1C1CCCCC1`, the TGI in [1] was 48.3 µM; in experiment [2] it was 63.1 µM; in [3], 49.2 µM; in experiment [4], greater than 100 µM; in experiment [5], 59 µM; in [6] it was 32 µM. The figures for the TGI in experiment [7], in experiment [8] and in [9] were greater than 100 µM, 42.6 µM and 58.5 µM, respectively.
For `COC(=O)C1(NC(=O)C(CC(=O)OC(C)(C)C)NC(=O)OC(C)(C)C)CC1` (stereo unspecified) (Boc-[ξD](OtBu)-[Ac3c]-OMe), the TGI in [1], in experiment [2], in [3], in experiment [4], in experiment [5] and in experiment [6] was greater than 100 µM in each case. The TGI in [7], in experiment [8] and in experiment [9] was greater than 100 µM each time.
For the compound `Cc1nn(C)c2nc3ccc(Cl)cc3c(-c3ccccc3)c12`, the TGI in [1], in experiment [2], in experiment [4], in [5], in [6] and in experiment [7] was greater than 100 µM throughout. Also, the TGI in [8], in [9] and in [10] was greater than 100 µM throughout.
Take `COP(=O)(OC)C(NC=O)P(=O)(OC)OC`: the TGI in experiment [3], in experiment [4], in experiment [5], in experiment [6], in [7] and in experiment [8] was greater than 100 µM throughout. Also, the TGI in experiment [9] and in [10] was greater than 100 µM throughout.
In the case of `CCn1c2ccc(O)c(C(=O)OC)c2c2cc3ccccc3c(O)c21`, the TGI in experiment [1] is greater than 100 µM; in [4], 39.5 µM; in experiment [5], 87.4 µM; in [6] it was 64.5 µM; in experiment [7], 69.2 µM; in experiment [8], greater than 100 µM. For the same compound, the results for the TGI in [9] and in [10] were 78.8 µM and 60 µM, respectively.
`CC1C2CC(C/C2=N/O)C1(C)C` (stereo unspecified): the TGI in experiment [1], in experiment [2], in experiment [4], in experiment [5], in experiment [6] and in experiment [7] was greater than 100 µM in each case. Besides, the TGI in [8], in experiment [9] and in experiment [10] was greater than 100 µM in each case.
In the case of `C=CC(C)(C)c1cc([C@@H]2COc3cc(O)ccc3C2=O)c(O)c(O)c1OC`, the TGI was greater than 100 µM in [1]; 56.6 µM in experiment [2]; 66.8 µM in [3]; 67.2 µM in [5]; greater than 100 µM in experiment [6]; 40.6 µM in experiment [7]. Besides, the figures for the TGI in experiment [8], in experiment [9] and in experiment [10] were 32.5 µM, 34.7 µM and 73.3 µM, respectively.
Consider `O=C(O)c1cc(Cl)cc2c1NC1(N2)C(=O)Nc2ccccc21` (stereo unspecified), for which the TGI in [1], in experiment [2], in experiment [3], in experiment [4], in experiment [5] and in experiment [6] was greater than 100 µM in each case. For the same compound, the TGI in experiment [7], in experiment [8] and in experiment [9] was greater than 100 µM each time.
For the compound `COc1cc(OC)c2c(O)c(S(=O)(=O)c3ccc(C)cc3)c(=O)oc2c1`, the TGI in experiment [1], in experiment [2], in experiment [4], in experiment [5], in experiment [6] and in experiment [7] was greater than 100 µM in each case. Further, the TGI in experiment [8], in experiment [9] and in [10] was greater than 100 µM in each case.
Consider `O=C1CCC2(O)C3Cc4ccc(Oc5nnnn5-c5ccccc5)c5c4C2(CCN3CC2CC2)C1O5` (stereo unspecified), for which the TGI was 45.7 µM in experiment [1]; greater than 100 µM in experiment [2]; 84.6 µM in [3]; 90.1 µM in experiment [4]; 30.8 µM in [5]; greater than 100 µM in experiment [6]. For the same compound, the TGI in experiment [7], in experiment [8] and in experiment [9] was greater than 100 µM in each case.
Consider `C/C=C/[C@H]1O[C@@](O)([C@@H](C)[C@H](O)[C@H](C)[C@H]2OC(=O)/C(OC)=C/C(C)=C/[C@@H](C)[C@@H](O)[C@@H](CC)[C@@H](O)[C@H](C)C/C(C)=C/C=C/[C@@H]2OC)C[C@H](OC2CC(O)C(OC(N)=O)C(C)O2)[C@@H]1C` (stereo partly specified), for which the TGI in experiment [1] amounted to 0.568 µM; in [2], 21.9 µM; in [3], 0.0614 µM; in experiment [4], 33.1 µM; in experiment [5] it was 20.4 µM; in experiment [6], 0.893 µM. The TGI in [7] is 17.4 µM; in experiment [8], 16.9 µM; in experiment [9], 15.1 µM.
With `COC(=O)/C(=C\c1ccco1)P(=O)(OC)OC`, the TGI in [1] was greater than 100 µM; in [2] it was greater than 100 µM; in [3], 71 µM; in experiment [4] it was greater than 100 µM; in [5] it was greater than 100 µM; in experiment [6], 51.4 µM. In addition, the TGI in [7], in [8] and in experiment [9] was greater than 100 µM throughout.
For `Cc1cc(S(=O)(=O)Nc2nc3ccccc3n2-c2ccccc2)c(S)cc1Cl`, the TGI in experiment [1], in experiment [2], in experiment [3], in [5], in [6] and in experiment [7] was greater than 100 µM in each case. Moreover, the TGI in [8], in [9] and in [10] was greater than 100 µM each time.
On to `CC(C)C(C/C=C1/CC(CO)(COC(=O)C2CCCCC2)OC1=O)C(C)C` (stereo unspecified), for which the TGI in experiment [1] turned out to be 78.7 µM; in experiment [2] it was 28.8 µM; in experiment [3], 29.4 µM; in experiment [4] it was 76.2 µM; in experiment [5], 35.1 µM; in experiment [6], 29 µM. In addition, the figures for the TGI in [7], in experiment [8] and in experiment [9] were 43.9 µM, 36.3 µM and 35.6 µM, respectively.

For the origin of these results see PubChem BioAssay (NCI).
